# According to patent US9925166B2, “Methods of treating an overweight or obese subject” (Zafgen, Inc., priority 2008, dated 2018):
# Molecular target: T1, MetAP-2 (Mus musculus, UniProt O08663)
# T1 construct: from tissue; host or cells: adipose tissue of diet-induced obese mice
# Test: ELISA assay of MetAP-2 binding (free MetAP-2) in adipose tissue lysates of dosed diet-induced obese mice
# Procedure: Diet-induced obese mice were orally (p.o.) administered fumagillin (3 mg/kg or 10 mg/kg; Medivet), subcutaneously administered (s.c.) TNP-470 (1 mg/kg, 3 mg/kg, 10 mg/kg, or 30 mg/kg; synthesized by standard semi-synthetic processes as described in European Patent EP 0 357 061), or administered a solution of 10% dimethyl sulfoxide (DMSO; control; Sigma-Aldrich). Mice were sacrificed and adipose tissue samples were obtained.
# An ELISA assay of MetAP-2 binding was conducted with tissue lysates prepared from the adipose tissue samples. The MetAP-2 ELISA is a quantitative assay to determine the amount of free MetAP-2 in tissue or cell lysates, i.e., MetAP-2 not covalently bound to fumagillin or TNP-470. The assay takes advantage of the fact that biotinylated fumagillin can bind to the catalytic site of the MetAP-2 enzyme only if this site has not already been derivatized by fumagillin or TNP-470. The biotinylated MetAP-2-inhibitor complex was captured on a streptavidin-coated plate and detected with a rabbit anti-MetAP-2 antibody (Zymed Laboratories Inc.). Horseradish peroxidase-conjugated anti-rabbit immunoglobulin G (IgG) was added to detect the MetAP-2 antibody immobilized to the streptavidin-coated plate with its covalently bound biotinylated fumagillin. Tetramethylbenzidine (TMB) substrate was added and the reaction was stopped by addition of sulfuric acid. Analysis was performed by determining absorption at 450 nm. Human recombinant MetAP-2 (R&D Systems), pre-bound to biotinylated fumagillin, was used to generate a standard curve.
# T1 sequence (O08663 whole entry): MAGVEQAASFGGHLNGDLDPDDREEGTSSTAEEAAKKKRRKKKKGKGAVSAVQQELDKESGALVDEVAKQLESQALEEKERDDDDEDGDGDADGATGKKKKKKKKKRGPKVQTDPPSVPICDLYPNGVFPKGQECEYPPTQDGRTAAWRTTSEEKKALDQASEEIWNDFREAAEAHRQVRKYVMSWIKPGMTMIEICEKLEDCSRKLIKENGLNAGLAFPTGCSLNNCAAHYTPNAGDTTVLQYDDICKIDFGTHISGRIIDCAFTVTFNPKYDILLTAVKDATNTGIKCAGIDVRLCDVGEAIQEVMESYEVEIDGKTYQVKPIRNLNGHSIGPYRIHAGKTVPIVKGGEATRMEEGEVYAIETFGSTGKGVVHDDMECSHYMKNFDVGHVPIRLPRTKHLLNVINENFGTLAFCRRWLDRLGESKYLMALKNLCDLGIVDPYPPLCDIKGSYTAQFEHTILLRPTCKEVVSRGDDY
structure (smiles),measurement,setting,value
CO[C@@H]1[C@H](OC(=O)NC(=O)CCl)CC[C@]2(CO2)[C@H]1[C@@]1(C)O[C@@H]1CC=C(C)C [TNP-470],binding to MetAP-2 in adipose tissue,"TNP-470 subcutaneously 1, 3, 10 or 30 mg/kg, diet-induced obese mice, FIG. 1",binds MetAP-2 in a dose dependent manner
same,binding to MetAP-2 in adipose tissue compared to orally administered fumagillin at the same dosages,"s.c. TNP-470 vs p.o. fumagillin, 3 mg/kg and 10 mg/kg",greater binding
